Assay results taken from patent US20260325533A1, “CDK INHIBITOR COMPOUNDS” (ALEKSIA THERAPEUTICS, INC., priority 2023, published 2026).
Read-outs that look alike come from different tables or passages of the source.

Legend:
Assay type in all cases: biochemical
CDK2/CCNE1 = CDK2/CCNE1 (Homo sapiens, UniProt P24941); assay: CDK2 homogeneous time-resolved fluorescence (HTRF) kinase assay; conditions: CDK2/CCNE
Summary of the method: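 IC50 derived from 11-point, half-log dilutions (usually top 10 μM) of compound, 1% DMSO. Kinase (3 nM CDK2/CCNE1) was preincubated with compound 20 min, then phosphorylated 50 nM ULight-4E-BP1 peptide at 1 mM ATP for 60 min, 23 °C. Europium-antibody TR-FRET read after EDTA stop.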

CDK1/CCNB1 = CDK1/CCNB1 (Homo sapiens, UniProt P06493); assay: CDK1 homogeneous time-resolved fluorescence (HTRF) kinase assay; conditions: CDK1/CCNB
Summary of the method: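 0.5 nM CDK1/CCNB1 was preincubated 20 min at 23 °C with compound in HEPES pH-unspecified buffer (MgCl2, EGTA, DTT, Tween 20), then reacted 60 min with 1 mM ATP and 50 nM ULight-4E-BP1 (Thr37/46) peptide. EDTA-stopped reactions were detected with 2 nM Eu-anti-phospho antibody; IC50 from 11-point half-log titrations.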

CDK4/CCND3 = CDK4/CCND3 (Homo sapiens, UniProt P11802); assay: CDK4 homogeneous time-resolved fluorescence (HTRF) kinase assay; conditions: CDK4/CCND
Summary of the method: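 TR-FRET read (665 nm, or 665/615 ratio) of 4E-BP1 Thr37/46 phosphorylation by 1.5 nM CDK4/CCND3 at 1 mM ATP, 50 nM ULight peptide, 1% DMSO. Reaction ran 60 min at 23 °C after 20 min compound–enzyme preincubation. IC50 from 11-point half-log dilutions, top 10 μM.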

CDK6/CCND1 = CDK6/CCND1 (Homo sapiens, UniProt Q00534); assay: CDK6 homogeneous time-resolved fluorescence (HTRF) kinase assay; conditions: CDK6/CCND, 1 mM ATP
Summary of the method: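 Assay conditions: HEPES buffer containing 10 mM MgCl2, 1 mM EGTA, 2 mM DTT, 0.01% Tween 20; 1 nM CDK6/CCND1, 50 nM peptide substrate, 1 mM ATP. Detection after 60 min reaction used 2 nM europium antibody with 340 nm excitation. Potency fitted from half-log series, 11 points.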

[1] = >250 nM, read-out: CDK2/CCNE IC50, >250 nM
[2] = >250 nM, read-out: CDK1/CCNB IC50 >250 nM
[3] = >250 nM, read-out: CDK4/CCND IC50, >250 nM
[4] = >250 nM, read-out: CDK6/CCND IC50, >250 nM
[5] = 25-250 nM, read-out: CDK2/CCNE IC50, 25-250 nM
[6] = <25 nM, read-out: CDK2/CCNE IC50, <25 nM
[7] = 25-250 nM, read-out: CDK1/CCNB IC50, 25-250 nM
[8] = 25-250 nM, read-out: CDK4/CCND IC50, 25-250 nM
[9] = 25-250 nM, read-out: CDK6/CCND IC50, 25-250 nM

Chain of CDK4/CCND3 (P11802 whole entry): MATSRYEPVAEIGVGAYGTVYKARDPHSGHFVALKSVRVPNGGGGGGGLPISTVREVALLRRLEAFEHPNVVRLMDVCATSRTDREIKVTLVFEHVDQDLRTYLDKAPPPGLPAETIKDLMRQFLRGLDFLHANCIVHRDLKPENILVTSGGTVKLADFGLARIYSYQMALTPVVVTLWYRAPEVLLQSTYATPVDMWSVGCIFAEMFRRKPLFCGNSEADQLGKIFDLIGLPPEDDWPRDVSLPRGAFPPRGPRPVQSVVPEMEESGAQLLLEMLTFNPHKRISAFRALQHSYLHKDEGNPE
Chain of CDK4/CCND3 (P30281 whole entry partner): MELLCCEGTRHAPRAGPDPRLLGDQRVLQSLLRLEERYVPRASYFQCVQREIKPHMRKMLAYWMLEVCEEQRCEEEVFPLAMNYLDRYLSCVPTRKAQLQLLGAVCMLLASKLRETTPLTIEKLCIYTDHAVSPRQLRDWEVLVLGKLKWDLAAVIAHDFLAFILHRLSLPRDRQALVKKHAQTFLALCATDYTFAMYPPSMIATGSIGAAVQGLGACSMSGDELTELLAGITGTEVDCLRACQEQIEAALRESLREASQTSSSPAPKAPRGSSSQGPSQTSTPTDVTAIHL
Chain of CDK1/CCNB1 (P06493 whole entry): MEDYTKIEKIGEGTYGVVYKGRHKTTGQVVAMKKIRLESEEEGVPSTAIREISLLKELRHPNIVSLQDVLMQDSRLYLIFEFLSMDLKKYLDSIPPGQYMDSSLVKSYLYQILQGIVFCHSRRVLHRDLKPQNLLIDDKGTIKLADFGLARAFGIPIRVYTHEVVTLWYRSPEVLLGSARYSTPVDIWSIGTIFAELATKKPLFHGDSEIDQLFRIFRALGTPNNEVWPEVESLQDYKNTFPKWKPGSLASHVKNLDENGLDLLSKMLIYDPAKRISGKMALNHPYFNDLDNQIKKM
Chain of CDK1/CCNB1 (P14635 whole entry partner): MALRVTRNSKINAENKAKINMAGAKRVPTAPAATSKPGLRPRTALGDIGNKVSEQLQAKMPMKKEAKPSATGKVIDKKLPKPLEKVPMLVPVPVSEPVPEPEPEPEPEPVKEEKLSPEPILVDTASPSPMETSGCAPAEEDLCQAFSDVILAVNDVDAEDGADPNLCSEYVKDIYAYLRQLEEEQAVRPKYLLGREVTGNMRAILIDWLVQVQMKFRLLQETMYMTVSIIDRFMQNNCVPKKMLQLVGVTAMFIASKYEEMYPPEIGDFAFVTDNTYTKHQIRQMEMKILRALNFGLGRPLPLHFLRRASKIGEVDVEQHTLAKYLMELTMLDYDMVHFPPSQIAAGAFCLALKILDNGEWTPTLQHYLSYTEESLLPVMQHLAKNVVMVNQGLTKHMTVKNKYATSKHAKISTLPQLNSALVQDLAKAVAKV
Chain of CDK6/CCND1 (Q00534 whole entry): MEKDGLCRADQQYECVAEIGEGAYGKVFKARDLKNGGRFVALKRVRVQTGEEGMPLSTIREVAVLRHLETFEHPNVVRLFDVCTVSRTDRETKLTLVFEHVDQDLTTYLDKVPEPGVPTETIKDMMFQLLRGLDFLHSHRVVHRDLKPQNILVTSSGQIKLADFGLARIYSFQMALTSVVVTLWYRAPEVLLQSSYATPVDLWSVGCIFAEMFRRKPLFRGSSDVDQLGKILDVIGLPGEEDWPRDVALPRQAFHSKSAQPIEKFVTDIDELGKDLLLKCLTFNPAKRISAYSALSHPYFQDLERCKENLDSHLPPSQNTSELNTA
Chain of CDK6/CCND1 (P24385 whole entry partner): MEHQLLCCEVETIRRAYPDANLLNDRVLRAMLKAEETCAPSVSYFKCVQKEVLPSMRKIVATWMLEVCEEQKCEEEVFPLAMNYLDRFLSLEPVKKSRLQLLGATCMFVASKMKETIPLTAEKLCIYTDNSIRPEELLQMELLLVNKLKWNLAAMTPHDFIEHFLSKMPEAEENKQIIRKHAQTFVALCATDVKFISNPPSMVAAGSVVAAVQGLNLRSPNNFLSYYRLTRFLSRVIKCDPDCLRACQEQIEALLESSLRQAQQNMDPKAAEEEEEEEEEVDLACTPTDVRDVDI

| Structure (SMILES) | IC50 (CDK2/CCNE1; [1]) | IC50 (CDK1/CCNB1; [2]) | IC50 (CDK4/CCND3; [3]) | IC50 (CDK6/CCND1; [4]) | IC50 (CDK2/CCNE1; [5]) | IC50 (CDK2/CCNE1; [6]) | IC50 (CDK1/CCNB1; [7]) | IC50 (CDK4/CCND3; [8]) | IC50 (CDK6/CCND1; [9]) |
| --- | --- | --- | --- | --- | --- | --- | --- | --- | --- |
| Cc1nn(-c2ccccc2)c(C)c1S(=O)(=O)Nc1ccc(Nc2cc3c(-c4ccc5c(cnn5CC(C)(C)O)c4C)nccc3cn2)cc1 [Ex 826, N-(4-((5-(1-(2-hydroxy-2-methylpropyl)-4-methyl-1H-indazol-5-yl)-2,6-naphthyridin-3-yl)amino)phenyl)-3,5-dimethyl-1-phenyl-1H-pyrazole-4-sulfonamide] | > 0.25 µM | > 0.25 µM | > 0.25 µM | > 0.25 µM |  |  |  |  |  |
| Cc1c(-c2nccc3cnc(Nc4ccc(NS(=O)(=O)c5ccc(Cl)s5)cc4)cc23)ccc2c1cnn2CC(C)(C)O [Ex 827, 5-chloro-N-(4-((5-(1-(2-hydroxy-2-methylpropyl)-4-methyl-1H-indazol-5-yl)-2,6-naphthyridin-3-yl)amino)phenyl)thiophene-2-sulfonamide] |  | > 0.25 µM | > 0.25 µM | > 0.25 µM | 0.025 to 0.25 µM |  |  |  |  |
| Cc1c(-c2nccc3cnc(Nc4ccc(NS(=O)(=O)c5cn(C)cn5)cc4)cc23)ccc2c1cnn2CC(C)(C)O [Ex 828, N-(4-((5-(1-(2-hydroxy-2-methylpropyl)-4-methyl-1H-indazol-5-yl)-2,6-naphthyridin-3-yl)amino)phenyl)-1-methyl-1H-imidazole-4-sulfonamide] |  |  |  |  |  | < 0.025 µM | 0.025 to 0.25 µM | 0.025 to 0.25 µM | 0.025 to 0.25 µM |
| CCc1ccc(S(=O)(=O)Nc2ccc(Nc3cc4c(-c5ccc6c(cnn6CC(C)(C)O)c5C)nccc4cn3)cc2)s1 [Ex 829, 5-ethyl-N-(4-((5-(1-(2-hydroxy-2-methylpropyl)-4-methyl-1H-indazol-5-yl)-2,6-naphthyridin-3-yl)amino)phenyl)thiophene-2-sulfonamide] |  | > 0.25 µM | > 0.25 µM | > 0.25 µM |  | < 0.025 µM |  |  |  |
| Cc1nn(C)c(C)c1S(=O)(=O)Nc1ccc(Nc2cc3c(-c4ccc5c(cnn5CC(C)(C)O)c4C)nccc3cn2)cc1 [Ex 830, N-(4-((5-(1-(2-hydroxy-2-methylpropyl)-4-methyl-1H-indazol-5-yl)-2,6-naphthyridin-3-yl)amino)phenyl)-1,3,5-trimethyl-1H-pyrazole-4-sulfonamide] |  | > 0.25 µM | > 0.25 µM | > 0.25 µM |  | < 0.025 µM |  |  |  |
| Cc1c(-c2nccc3cnc(Nc4ccc(NS(=O)(=O)c5ccsc5)cc4)cc23)ccc2c1cnn2CC(C)(C)O [Ex 831, N-(4-((5-(1-(2-hydroxy-2-methylpropyl)-4-methyl-1H-indazol-5-yl)-2,6-naphthyridin-3-yl)amino)phenyl)thiophene-3-sulfonamide] |  | > 0.25 µM | > 0.25 µM | > 0.25 µM |  | < 0.025 µM |  |  |  |
| Cc1c(-c2nccc3cnc(Nc4ccc(NS(=O)(=O)c5ccn(C)n5)cc4)cc23)ccc2c1cnn2CC(C)(C)O [Ex 832, N-(4-((5-(1-(2-hydroxy-2-methylpropyl)-4-methyl-1H-indazol-5-yl)-2,6-naphthyridin-3-yl)amino)phenyl)-1-methyl-1H-pyrazole-3-sulfonamide] |  |  |  |  |  | < 0.025 µM | 0.025 to 0.25 µM | 0.025 to 0.25 µM | 0.025 to 0.25 µM |
| Cc1oncc1S(=O)(=O)Nc1ccc(Nc2cc3c(-c4ccc5c(cnn5CC(C)(C)O)c4C)nccc3cn2)cc1 [Ex 833, N-(4-((5-(1-(2-hydroxy-2-methylpropyl)-4-methyl-1H-indazol-5-yl)-2,6-naphthyridin-3-yl)amino)phenyl)-5-methylisoxazole-4-sulfonamide] |  | > 0.25 µM | > 0.25 µM | > 0.25 µM | 0.025 to 0.25 µM |  |  |  |  |
| Cc1c(-c2nccc3cnc(Nc4ccc(NS(=O)(=O)c5cccs5)cc4)cc23)ccc2c1cnn2CC(C)(C)O [Ex 834, N-(4-((5-(1-(2-hydroxy-2-methylpropyl)-4-methyl-1H-indazol-5-yl)-2,6-naphthyridin-3-yl)amino)phenyl)thiophene-2-sulfonamide] |  | > 0.25 µM | > 0.25 µM | > 0.25 µM |  | < 0.025 µM |  |  |  |
| Cc1c(-c2nccc3cnc(Nc4ccc(NS(=O)(=O)c5cnn(C)c5)cc4)cc23)ccc2c1cnn2CC(C)(C)O [Ex 835, N-(4-((5-(1-(2-hydroxy-2-methylpropyl)-4-methyl-1H-indazol-5-yl)-2,6-naphthyridin-3-yl)amino)phenyl)-1-methyl-1H-pyrazole-4-sulfonamide] |  |  |  |  |  | < 0.025 µM | 0.025 to 0.25 µM | 0.025 to 0.25 µM | 0.025 to 0.25 µM |
| Cc1cc(Nc2cc3c(-c4ccc5c(cnn5CC(C)(C)O)c4C)nccc3cn2)ccc1S(C)(=O)=O [Ex 836, 2-methyl-1-(4-methyl-5-(7-((3-methyl-4-(methylsulfonyl)phenyl)amino)-2,6-naphthyridin-1-yl)-1H-indazol-1-yl)propan-2-ol] |  | > 0.25 µM | > 0.25 µM | > 0.25 µM |  | < 0.025 µM |  |  |  |
| COc1cc(Nc2cc3c(-c4ccc5c(cnn5CC(C)(C)O)c4C)nccc3cn2)ccc1S(C)(=O)=O [Ex 837, 1-(5-(7-((3-methoxy-4-(methylsulfonyl)phenyl)amino)-2,6-naphthyridin-1-yl)-4-methyl-1H-indazol-1-yl)-2-methylpropan-2-ol] |  | > 0.25 µM | > 0.25 µM | > 0.25 µM | 0.025 to 0.25 µM |  |  |  |  |
| COc1cc(S(C)(=O)=O)ccc1Nc1cc2c(-c3ccc4c(cnn4CC(C)(C)O)c3C)nccc2cn1 [Ex 838, 1-(5-(7-((2-methoxy-4-(methylsulfonyl)phenyl)amino)-2,6-naphthyridin-1-yl)-4-methyl-1H-indazol-1-yl)-2-methylpropan-2-ol] |  | > 0.25 µM | > 0.25 µM | > 0.25 µM |  | < 0.025 µM |  |  |  |
| Cc1c(-c2nccc3cnc(Nc4ccc(NS(=O)(=O)c5cccnc5)cc4)cc23)ccc2c1cnn2CC(C)(C)O [Ex 839, N-(4-((5-(1-(2-hydroxy-2-methylpropyl)-4-methyl-1H-indazol-5-yl)-2,6-naphthyridin-3-yl)amino)phenyl)pyridine-3-sulfonamide] |  |  |  |  |  | < 0.025 µM | 0.025 to 0.25 µM | 0.025 to 0.25 µM | 0.025 to 0.25 µM |
| C[C@@H]1CN(C)CCN1c1cc(Nc2cc3c(C#Cc4ccc(=O)[nH]n4)nccc3cn2)cnc1O [Ex 840, (R)-6-((7-((5-(2,4-dimethylpiperazin-1-yl)-6-hydroxypyridin-3-yl)amino)-2,6-naphthyridin-1-yl)ethynyl)pyridazin-3(2H)-one] | > 0.25 µM | > 0.25 µM | > 0.25 µM | > 0.25 µM |  |  |  |  |  |
| Cc1ccnc(NS(=O)(=O)c2ccc(Nc3cc4c(-c5ccc6c(cnn6CC(C)(C)O)c5C)nccc4cn3)cc2)c1 [Ex 841, 4-((5-(1-(2-hydroxy-2-methylpropyl)-4-methyl-1H-indazol-5-yl)-2,6-naphthyridin-3-yl)amino)-N-(4-methylpyridin-2-yl)benzenesulfonamide] |  | > 0.25 µM |  |  |  | < 0.025 µM |  | 0.025 to 0.25 µM | 0.025 to 0.25 µM |
| Cc1c(-c2nccc3cnc(Nc4ccc(S(=O)(=O)Nc5ccc(N6CCOCC6)nn5)cc4)cc23)ccc2c1cnn2CC(C)(C)O [Ex 842, 4-((5-(1-(2-hydroxy-2-methylpropyl)-4-methyl-1H-indazol-5-yl)-2,6-naphthyridin-3-yl)amino)-N-(6-morpholinopyridazin-3-yl)benzenesulfonamide] |  |  |  |  |  | < 0.025 µM | 0.025 to 0.25 µM | 0.025 to 0.25 µM | 0.025 to 0.25 µM |
| Cc1nn(C)cc1S(=O)(=O)Nc1ccc(Nc2cc3c(-c4ccc5c(cnn5CC(C)(C)O)c4C)nccc3cn2)cc1 [Ex 843, N-(4-((5-(1-(2-hydroxy-2-methylpropyl)-4-methyl-1H-indazol-5-yl)-2,6-naphthyridin-3-yl)amino)phenyl)-1,3-dimethyl-1H-pyrazole-4-sulfonamide] |  | > 0.25 µM |  |  |  | < 0.025 µM |  | 0.025 to 0.25 µM | 0.025 to 0.25 µM |
| Cc1c(-c2nccc3cnc(Nc4ccc(S(C)(=O)=O)c(C(F)(F)F)c4)cc23)ccc2c1cnn2CC(C)(C)O [Ex 844, 2-methyl-1-(4-methyl-5-(7-((4-(methylsulfonyl)-3-(trifluoromethyl)phenyl)amino)-2,6-naphthyridin-1-yl)-1H-indazol-1-yl)propan-2-ol] |  | > 0.25 µM | > 0.25 µM | > 0.25 µM | 0.025 to 0.25 µM |  |  |  |  |
